{"source": "patent US6087119A", "about": "“Method for determining the catalytic activity of factor IXa” (Roche Diagnostics GmbH, priority 1996, dated 2000)", "target": "native FIXa (human) (Homo sapiens, UniProt P00740)", "sequence (P00740 227-461 limits assumed)": "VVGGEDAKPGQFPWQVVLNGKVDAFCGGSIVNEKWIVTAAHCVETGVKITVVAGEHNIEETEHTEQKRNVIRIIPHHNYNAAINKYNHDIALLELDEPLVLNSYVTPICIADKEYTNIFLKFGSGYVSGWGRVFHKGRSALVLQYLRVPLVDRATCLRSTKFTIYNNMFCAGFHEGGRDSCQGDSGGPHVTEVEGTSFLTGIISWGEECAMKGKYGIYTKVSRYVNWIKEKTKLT", "sequence (P00740 47-191 partner limits assumed)": "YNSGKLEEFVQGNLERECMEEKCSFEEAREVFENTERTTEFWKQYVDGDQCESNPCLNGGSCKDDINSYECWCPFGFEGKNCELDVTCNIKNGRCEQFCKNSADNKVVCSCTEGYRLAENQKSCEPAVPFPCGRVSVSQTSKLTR", "settings": "MeSO2-D-HHT-Gly-Arg-pNA", "from_the_text": "Influence of the pH on the Activity of rFIXa and Native FIXa in the Presence of Ethylene Glycol\n1.02 mmol/l MeSO2 -D-HHT-Gly-Arg-pNA, MOC-D-Nle-Gly-Arg-pNA or MeSO2 -D-CHG-Gly-Arg-pNA\n0.14 μmol/l native FIXa (human)", "note": "Read-outs that look alike come from different tables or passages of the source.", "data": [{"smiles": "OCCO", "note": "[Ethylene glycol]", "values": [{"measurement": "cleavage rate mA/min", "setting": "pH 7.0, 25% ethylene glycol", "result": 23.7, "unit": "mA/min"}, {"measurement": "cleavage rate mA/min", "setting": "pH 7.5, 25% ethylene glycol", "result": 63.0, "unit": "mA/min"}, {"measurement": "cleavage rate mA/min", "setting": "pH 8.0, 25% ethylene glycol", "result": 101.0, "unit": "mA/min"}, {"measurement": "cleavage rate mA/min", "setting": "pH 8.25, 25% ethylene glycol", "result": 106.7, "unit": "mA/min"}, {"measurement": "cleavage rate mA/min", "setting": "pH 8.5, 25% ethylene glycol", "result": 115.4, "unit": "mA/min"}, {"measurement": "cleavage rate mA/min", "setting": "pH 8.75, 25% ethylene glycol", "result": 110.9, "unit": "mA/min"}, {"measurement": "cleavage rate mA/min", "setting": "pH 9.0, 25% ethylene glycol", "result": 105.6, "unit": "mA/min"}, {"measurement": "cleavage rate mA/min", "setting": "pH 9.5, 25% ethylene glycol", "result": 100.6, "unit": "mA/min"}, {"measurement": "cleavage rate mA/min", "setting": "pH 10.0, 25% ethylene glycol", "result": 77.2, "unit": "mA/min"}]}]}
